Measurements taken from PMC4199632, “Exploring the Anti-Cancer Activity of Novel Thiosemicarbazones Generated through the Combination of Retro-Fragments: Dissection of Critical Structure-Activity Relationships” (PLoS ONE, 2014).

Tests used:
[1] = test system: HCT116 p53+/+ colon cancer cells; test: Proliferation assay (MTS, 96 h); type: cell-based, human; details: Homo sapiens, HCT-116; 96 h incubation, MTS; mean ±SD (3 experiments)
Description: (§1) The human cancer cell types (neuroepithelioma (SK-N-MC), colon cancer (HCT116 with wild-type p53 (p53^+/+)), Burkitt's lymphoma (Raji) and cervical carcinoma (HeLa)) cells and normal human dermal fibroblasts (NHDF) were obtained from the American Type Culture Collection (ATCC, Manassas, VA, USA). HCT116 null p53 (p53^−/−) cells were obtained from the Maria Sklodowska-Curie Memorial Cancer Center and Institute of Oncology, Poland.
(§2) The SK-N-MC cells were cultured in minimum essential medium (MEM; Life Technologies, Grand Island, New York, USA) containing 10% (v/v) fetal bovine serum (FBS; Life Technologies), 1 mM sodium pyruvate (Life Technologies), 1% (v/v) non-essential amino acids (Life Technologies), 2 mM L-glutamine (Life Technologies), 100 U/mL penicillin (Life Technologies), 100 µg/mL streptomycin (Life Technologies) and 0.28 µg/mL fungizone (Bristol Myers Squibb Pharmaceuticals, Montreal, Canada). The HCT116 and NHDF cells were grown in Dulbecco's modified Eagle's medium (DMEM; Sigma-Aldrich) supplemented with 12% (v/v) heat-inactivated FBS (HCT116; Life Technologies) or 15% (v/v) FBS (NHDF; Life Technologies), 100 µg/mL of gentamicin (Polfa Warszawa S.A., Warsaw, Poland), 100 µg/mL of streptomycin (Polfa) and 100 U/mL of penicillin (Polfa). The Raji and HeLa cells were cultured in Roswell Park Memorial Institute medium (RPMI-1640; Sigma-Aldrich) with the addition of 10% (v/v) heat-inactivated FBS (Life Technologies) and the supplements described for SK-N-MC cells above. All cell lines were cultured under standard conditions at 37°C in a humidified atmosphere at 5% CO2 and were subcultured every 3–4 days as required.
(§3) The cells were seeded in 96-well plates (SK-N-MC: 1.5×10^4 cells/well; HeLa: 5.0×10^3 cells/well; Raji: 3.0×10^3 cells/well; HCT116: 3.5×10^3 cells/well; NHDF: 3.0×10^3 cells/well) 24 h prior to the addition of the novel compounds. The assays were performed using a 72 h (SK-N-MC, Raji, HeLa) or 96 h (HCT 116, NHDF) incubation period with the agents at 37°C. […] Additionally, DFO and Dp44mT were included as positive controls in all experiments as their activity is well characterized, [42], [50].
(§4) Chelator stock solutions were prepared in DMSO and diluted in media so that the final [DMSO] <0.05%. The results were expressed as a percentage of the control and the resulting IC50 values were calculated using GraphPad Prism 5 (GraphPad Software, Inc., La Jolla, CA, USA). The IC50 was defined as the concentration necessary to reduce the absorbance to 50% of the untreated control. Each individual compound was tested in triplicate in a single experiment, with each experiment being repeated three times. After incubation of HCT 116 and NHDF cells with the tested compounds, 20 µL of the CellTiter 96 Aqueous One Solution - MTS (Promega, Madison, WI, USA) solution was added to each well (with 100 µL of DMEM without phenol red) and incubated for 1 h/37°C. The optical density of the samples was analyzed at 490 nm.

[2] = test system: HCT116 p53−/− colon cancer cells; test: Proliferation assay (MTS, 96 h); type: cell-based, human; details: Homo sapiens, HCT-116, 96 h, 96 h incubation, MTS; mean ±SD (3 experiments)
Description: as §1, §2, §3, §4

[3] = test system: Raji Burkitt's lymphoma cells; test: Proliferation assay (MTT, 72 h); type: cell-based; details: Homo sapiens, 72 h incubation, mean ±SD (3 experiments)
Description: as §1, §2, §3, §4
(§5) MTT (3-[4,5-dimethylthiazol-2-yl]-2,5-diphenyltetrazolium bromide) was used to evaluate the anti-proliferative effects of the chelators in SK-N-MC and Raji cells. Following incubation with the investigated compounds, 10 µL of MTT (5 mg/mL in PBS; Sigma-Aldrich) was added to each well. After a 2 h (SK-N-MC) or 4 h (Raji) incubation, the plates were centrifuged, and the cells were lysed with 100 µL of 10% SDS-50% isobutanol in 0.01 M HCl (SK-N-MC) or DMSO (Raji). The absorbance was measured at 570 nm. The anti-proliferative effects of these novel agents on HeLa cells were estimated using crystal violet staining (0.5% crystal violet solution for 10 min). Finally, the wells were rinsed with water and the cells were lysed with 2% SDS. The optical density of the samples was analyzed at 595 nm.

[4] = test system: SK-N-MC neuroepithelioma cells; test: Proliferation assay (MTT, 72 h); type: cell-based; details: Homo sapiens, 72 h incubation, mean ±SD (3 experiments)
Description: as §1, §2, §3, §4, §5

[5] = test system: HeLa cervical carcinoma cells; test: Proliferation assay (crystal violet, 72 h); type: cell-based; details: Homo sapiens, 72 h incubation, mean ±SD (3 experiments)
Description: as §1, §2, §3, §4, §5

[6] = test system: normal human dermal fibroblast (NHDF) cells; test: Proliferation assay (MTS, 96 h), normal mortal cells; type: cell-based; details: Homo sapiens, NHDF, 96 h, 96 h incubation, mean ±SD (3 experiments)
Description: as §1, §2, §3, §4

SK-N-MC cells [7] = test: Mobilization of cellular 59Fe (59Fe efflux); type: cell-based, human; details: chelator 25 µM; for 59Fe mobilization (% of cellular 59Fe released): 3 h/37°C, prelabeled SK-N-MC cells, control medium 4±1%
Description: (§6) The iron transport protein, Tf (Sigma-Aldrich), was labeled with ^59Fe (PerkinElmer Life and Analytical Sciences, Boston, MA) to form ^59Fe2-Tf using standard methods, [7]. Unbound ^59Fe was removed by passage through a Sephadex G25 column and was followed by exhaustive dialysis, [7].
To examine the ability of the novel chelators to mobilize ^59Fe from SK-N-MC cells, ^59Fe efflux experiments were performed using established techniques, [51]. The monolayer of SK-N-MC cells was prelabeled for 3 h at 37°C in MEM containing ^59Fe2-Tf (0.75 µM). Cells were then washed four times with ice-cold PBS and incubated for a further 3 h at 37°C with medium alone (the control) or medium containing the chelator (25 µM). After this incubation, the overlying medium that contained the released ^59Fe was separated from the cells using a Pasteur pipette. Radioactivity was measured in both the cells and supernatant using a γ-scintillation counter (Wallac Wizard 3, Turku, Finland). In these studies, the novel ligands were compared to the previously characterized chelators, DFO and Dp44mT, as their ability to mobilize cellular ^59Fe has been extensively examined in these cells, [12], [17], [18], [50].
Figure 6 Effect of (A) series 1, (B) series 2, (C) series 3, (D) series 4, (E) series 5 and (F) series 6 chelators, relative to the controls DFO and Dp44mT, on ^59Fe mobilization from prelabeled SK-N-MC cells. Cells were incubated for 3 h/37°C with ^59Fe-transferrin (0.75 µM), washed 4 times with ice-cold PBS and then reincubated for 3 h/37°C in the presence or absence of the chelators (25 µM). Release of ^59Fe was then assessed using a γ-scintillation counter. Results are mean ±SD (3 experiments).

SK-N-MC cells [8] = test: Inhibition of cellular 59Fe uptake from 59Fe2-Tf; type: cell-based, human; details: chelator 25 µM; for Internalized 59Fe uptake from 59Fe2-Tf (% of the control): 59Fe2-Tf 0.75 µM, 3 h/37°C
Description: as §6
The ability of the chelators to prevent the cellular uptake of ^59Fe from ^59Fe2-Tf was examined using standard methods, [14], [17], [18], [50]. A monolayer of SK-N-MC cells was incubated with medium containing ^59Fe2-Tf (0.75 µM) and the chelator (25 µM) for 3 h at 37°C. The medium was then removed and the cells were washed four times with ice-cold PBS. The cells were then incubated for 30 min at 4°C with the general protease, Pronase (1 mg/mL; Sigma-Aldrich), to remove membrane-bound ^59Fe. The cells were removed using a plastic spatula and centrifuged at 14,000 rpm/1 min to separate internalized from membrane-bound ^59Fe. The cell pellet was resuspended in 1 mL of PBS and the internalized ^59Fe was measured on a γ-scintillation counter. Internalized ^59Fe uptake was calculated as a percentage of the control (medium alone). Again, the novel ligands were compared to DFO and Dp44mT as their ability to inhibit cellular ^59Fe uptake has been extensively characterized using SK-N-MC cells, [14], [17], [18], [50].
Figure 8 Effect of (A) series 1, (B) series 2, (C) series 3, (D) series 4, (E) series 5 and (F) series 6 chelators, relative to the controls DFO and Dp44mT, on ^59Fe uptake from ^59Fe-transferrin by SK-N-MC cells. Cells were incubated for 3 h/37°C with ^59Fe-transferrin (0.75 µM) in the presence or absence of the chelators (25 µM). At the end of this incubation, cells were washed 4 times with ice-cold PBS. Internalization of ^59Fe was assessed by incubation for 30 min/4°C with the protease, Pronase (1 mg/mL). Cellular ^59Fe was then assessed using a γ-scintillation counter. Results are mean ±SD (3 experiments).

[9] = parameters: method as in PMID 17851637, PMID 18217206, PMID 15148626; details: clinical trials; cited from earlier work

SMILES	IC50 [1]	IC50 [2]	IC50 [3]	IC50 [4]	IC50 [5]	IC50 [6]	59Fe mobilization (% of cellular 59Fe released) (SK-N-MC cells [7])	Internalized 59Fe uptake from 59Fe2-Tf (% of the control) (SK-N-MC cells [8])	59Fe mobilization efficacy compared with controls (SK-N-MC cells [7]; SK-N-MC cells)	Inhibition of 59Fe uptake compared with controls (SK-N-MC cells [8])	melting point	Side effects upon administration [9]
S=C(NN=C(c1ccccn1)c1ccccn1)N1CCOCC1 [1c]	0.014 ± 0.005 µM	0.014 ± 0.006 µM	0.003 ± 0.004 µM	1.21 ± 0.35 µM	2.21 ± 0.47 µM	0.016 ± 0.006 µM	31–39%	3.6–11.5%				
S=C(N/N=C/c1ccc2ccccc2n1)N1CCN(c2ccccn2)CC1 [2d]	0.39 ± 0.15 µM	0.27 ± 0.16 µM	0.05 ± 0.02 µM	0.52 ± 0.16 µM	5.14 ± 2.87 µM	0.032 ± 0.008 µM			comparable release of ^59Fe relative to DFO	comparable inhibition of ^59Fe uptake to that of DFO		
CN(C(=S)N/N=C/c1ccc2cccc(O)c2n1)C1CCCCC1 [3f]	3.11 ± 1.92 µM	4.35 ± 1.35 µM	0.01 µM	> 6.25 µM	2.57 ± 0.46 µM	5.36 ± 1.99 µM		3.6–11.5%				
CCN1CCN(C(=S)N/N=C/c2c(O)ccc3cccnc23)CC1 [4a]	20.2 ± 0.3 µM	20.3 ± 0.9 µM	3.35 ± 1.11 µM	5.09 ± 0.47 µM	11.3 ± 1.6 µM	12.1 ± 4.2 µM	31–39%					
Oc1ccc2cccnc2c1/C=N/NC(=S)N1CCOCC1 [4c]	20.1 ± 0.3 µM	19.8 ± 4.9 µM	3.53 ± 1.87 µM	4.97 ± 0.95 µM	10.2 ± 1.2 µM	> 25 µM	31–39%					
S=C(N/N=C/c1cnc2ccccc2n1)N1CCOCC1 [5c]	2.03 ± 1.24 µM	5.84 ± 1.65 µM	0.24 ± 0.04 µM	2.87 ± 1.25 µM	0.86 ± 0.09 µM	11.6 ± 1.8 µM		3.6–11.5%				
Oc1ccccc1/C=N/NC(=S)N1CCN(c2ccccc2)CC1 [6b]	6.9 ± 2.3 µM	8.86 ± 1.46 µM	1.96 ± 0.85 µM	5.13 ± 0.51 µM	5.8 ± 0.48 µM	13.5 ± 4.8 µM					206 to 207 °C	
Oc1ccccc1/C=N/NC(=S)N1CCOCC1 [6c]	15.4 ± 1.7 µM	16.4 ± 3.1 µM	3.79 ± 0.08 µM	> 6.25 µM	18.2 ± 1.3 µM	> 25 µM		3.6–11.5%				
NC(=S)NN=Cc1ncccc1N [Triapine, 3-aminopyridine-2-carboxaldehyde thiosemicarbazone]												methemoglobin formation and hypoxia
